Data published in PubChem BioAssay (NCI).
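Exposure lasted 48 hours, with cells grown in 96-well plates and compounds tested at five concentrations. At the TGI there is no net growth.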

How the values were obtained:
Experiment in all cases: DTP human tumour cell line panel, 48 h
786-0 renal = tested on: 786-0 renal
A498 renal = tested on: A498 renal
ACHN renal = tested on: ACHN renal
BT-549 breast = tested on: BT-549 breast
CAKI-1 renal = tested on: CAKI-1 renal
CCRF-CEM leukemia = tested on: CCRF-CEM leukemia
COLO 205 colon = tested on: COLO 205 colon
DU-145 prostate = tested on: DU-145 prostate
EKVX NSCLC = tested on: EKVX NSCLC
HCT-116 colon = tested on: HCT-116 colon
HCT-15 colon = tested on: HCT-15 colon
HL-60(TB) leukemia = tested on: HL-60(TB) leukemia
HOP-62 NSCLC = tested on: HOP-62 NSCLC
HS 578T breast = tested on: HS 578T breast
HT29 colon = tested on: HT29 colon
IGROV1 ovarian = tested on: IGROV1 ovarian
K-562 leukemia = tested on: K-562 leukemia
KM12 colon = tested on: KM12 colon
LOX IMVI melanoma = tested on: LOX IMVI melanoma
M14 melanoma = tested on: M14 melanoma
MALME-3M melanoma = tested on: MALME-3M melanoma
MCF7 breast = tested on: MCF7 breast
MDA-MB-231 breast = tested on: MDA-MB-231 breast
MDA-MB-435 = tested on: MDA-MB-435
MDA-N = tested on: MDA-N
MOLT-4 leukemia = tested on: MOLT-4 leukemia
NCI-H226 lung = tested on: NCI-H226 lung
NCI-H23 lung = tested on: NCI-H23 lung
NCI-H460 lung = tested on: NCI-H460 lung
NCI/ADR-RES ovarian = tested on: NCI/ADR-RES ovarian
OVCAR-3 ovarian = tested on: OVCAR-3 ovarian
OVCAR-5 ovarian = tested on: OVCAR-5 ovarian
OVCAR-8 ovarian = tested on: OVCAR-8 ovarian
PC-3 prostate = tested on: PC-3 prostate
RPMI-8226 leukemia = tested on: RPMI-8226 leukemia
RXF 393 renal = tested on: RXF 393 renal
SF-268 CNS = tested on: SF-268 CNS
SF-295 CNS = tested on: SF-295 CNS
SF-539 CNS = tested on: SF-539 CNS
SK-MEL-2 melanoma = tested on: SK-MEL-2 melanoma
SK-MEL-28 melanoma = tested on: SK-MEL-28 melanoma
SK-MEL-5 melanoma = tested on: SK-MEL-5 melanoma
SK-OV-3 ovarian = tested on: SK-OV-3 ovarian
SN12C renal = tested on: SN12C renal
SNB-19 CNS = tested on: SNB-19 CNS
SNB-75 CNS = tested on: SNB-75 CNS
SR leukemia = tested on: SR leukemia
SW-620 colon = tested on: SW-620 colon
TK-10 renal = tested on: TK-10 renal
U251 CNS = tested on: U251 CNS
UACC-257 melanoma = tested on: UACC-257 melanoma
UACC-62 melanoma = tested on: UACC-62 melanoma
A549 NSCLC = tested on: A549 NSCLC
HCC-2998 colon = tested on: HCC-2998 colon
HOP-92 NSCLC = tested on: HOP-92 NSCLC
NCI-H522 lung = tested on: NCI-H522 lung
OVCAR-4 ovarian = tested on: OVCAR-4 ovarian
T-47D breast = tested on: T-47D breast
UO-31 renal = tested on: UO-31 renal

O=c1oc2ccccc2n1CCN1CCCCC1
TGI (786-0 renal): > 100 µM | TGI (A498 renal): > 100 µM | TGI (ACHN renal): > 100 µM | TGI (BT-549 breast): > 100 µM | TGI (CAKI-1 renal): > 100 µM | TGI (CCRF-CEM leukemia): > 100 µM | TGI (COLO 205 colon): > 100 µM | TGI (DU-145 prostate): > 100 µM | TGI (EKVX NSCLC): > 100 µM | TGI (HCT-116 colon): > 100 µM | TGI (HCT-15 colon): > 100 µM | TGI (HL-60(TB) leukemia): > 100 µM | TGI (HOP-62 NSCLC): > 100 µM | TGI (HS 578T breast): > 100 µM | TGI (HT29 colon): > 100 µM | TGI (IGROV1 ovarian): > 100 µM | TGI (K-562 leukemia): > 100 µM | TGI (KM12 colon): > 100 µM | TGI (LOX IMVI melanoma): > 100 µM | TGI (M14 melanoma): > 100 µM | TGI (MALME-3M melanoma): > 100 µM | TGI (MCF7 breast): > 100 µM | TGI (MDA-MB-231 breast): > 100 µM | TGI (MDA-MB-435): > 100 µM | TGI (MDA-N): > 100 µM | TGI (MOLT-4 leukemia): > 100 µM | TGI (NCI-H226 lung): > 100 µM | TGI (NCI-H23 lung): > 100 µM | TGI (NCI-H460 lung): > 100 µM | TGI (NCI/ADR-RES ovarian): > 100 µM | TGI (OVCAR-3 ovarian): > 100 µM | TGI (OVCAR-5 ovarian): > 100 µM | TGI (OVCAR-8 ovarian): > 100 µM | TGI (PC-3 prostate): > 100 µM | TGI (RPMI-8226 leukemia): > 100 µM | TGI (RXF 393 renal): > 100 µM | TGI (SF-268 CNS): > 100 µM | TGI (SF-295 CNS): > 100 µM | TGI (SF-539 CNS): > 100 µM | TGI (SK-MEL-2 melanoma): > 100 µM | TGI (SK-MEL-28 melanoma): > 100 µM | TGI (SK-MEL-5 melanoma): > 100 µM | TGI (SK-OV-3 ovarian): > 100 µM | TGI (SN12C renal): > 100 µM | TGI (SNB-19 CNS): > 100 µM | TGI (SNB-75 CNS): > 100 µM | TGI (SR leukemia): > 100 µM | TGI (SW-620 colon): > 100 µM | TGI (TK-10 renal): > 100 µM | TGI (U251 CNS): > 100 µM | TGI (UACC-257 melanoma): > 100 µM | TGI (UACC-62 melanoma): > 100 µM

COC(=O)c1c(C)cccc1/C=C1\Cc2cc(C)cc(C)c2C1=O
TGI (786-0 renal): > 100 µM | TGI (A498 renal): > 100 µM | TGI (A549 NSCLC): > 100 µM | TGI (ACHN renal): > 100 µM | TGI (BT-549 breast): > 100 µM | TGI (CAKI-1 renal): > 100 µM | TGI (CCRF-CEM leukemia): > 100 µM | TGI (DU-145 prostate): > 100 µM | TGI (EKVX NSCLC): > 100 µM | TGI (HCC-2998 colon): > 100 µM | TGI (HCT-116 colon): > 100 µM | TGI (HCT-15 colon): > 100 µM | TGI (HL-60(TB) leukemia): > 100 µM | TGI (HOP-62 NSCLC): 37.7 µM | TGI (HOP-92 NSCLC): 39.4 µM | TGI (HS 578T breast): 69.7 µM | TGI (HT29 colon): > 100 µM | TGI (IGROV1 ovarian): > 100 µM | TGI (K-562 leukemia): > 100 µM | TGI (KM12 colon): > 100 µM | TGI (LOX IMVI melanoma): > 100 µM | TGI (M14 melanoma): > 100 µM | TGI (MALME-3M melanoma): > 100 µM | TGI (MCF7 breast): > 100 µM | TGI (MDA-MB-231 breast): > 100 µM | TGI (MDA-N): > 100 µM | TGI (MOLT-4 leukemia): > 100 µM | TGI (NCI-H226 lung): > 100 µM | TGI (NCI-H23 lung): > 100 µM | TGI (NCI-H460 lung): > 100 µM | TGI (NCI-H522 lung): > 100 µM | TGI (OVCAR-3 ovarian): > 100 µM | TGI (OVCAR-4 ovarian): 51.4 µM | TGI (OVCAR-5 ovarian): > 100 µM | TGI (OVCAR-8 ovarian): > 100 µM | TGI (PC-3 prostate): > 100 µM | TGI (RPMI-8226 leukemia): > 100 µM | TGI (RXF 393 renal): 58.5 µM | TGI (SF-268 CNS): > 100 µM | TGI (SF-295 CNS): > 100 µM | TGI (SF-539 CNS): > 100 µM | TGI (SK-MEL-2 melanoma): 57.3 µM | TGI (SK-MEL-28 melanoma): > 100 µM | TGI (SK-MEL-5 melanoma): > 100 µM | TGI (SN12C renal): > 100 µM | TGI (SNB-19 CNS): > 100 µM | TGI (SNB-75 CNS): 38.4 µM | TGI (SR leukemia): > 100 µM | TGI (SW-620 colon): > 100 µM | TGI (T-47D breast): > 100 µM | TGI (TK-10 renal): 73 µM | TGI (U251 CNS): 48.2 µM | TGI (UACC-257 melanoma): > 100 µM | TGI (UACC-62 melanoma): 48.6 µM | TGI (UO-31 renal): > 100 µM
